Experimental data reported in patent US20200299328A1, “POLYPEPTIDE WITH FUNCTION OF INHIBITING ABETA 42 PROTEIN AGGREGATION AND USE THEREOF, AND GENE ENCODING THE POLYPEPTIDE” (SOUTH CHINA UNIVERSITY OF TECHNOLOGY, priority 2018, published 2020).

Tested on: Aβ42 protein aggregation in HEK-293-Aβ42-mCherry cells
Assay: Activity experiment of inhibiting Aβ42 protein aggregation in vitro (IncuCyte Zoom live cell imaging, tetracycline induction)
Format: cell-based
Settings: compared with model group, 72 hours after tetracycline, p<0.01 (FIG. 5)
Excerpt: In the specific embodiments, in an application process of the polypeptide with the function of inhibiting Aβ42 protein aggregation according to the present invention, a mechanism of inhibiting AD senile plaque by the polypeptide is first researched through a visual in-vitro cell model test. Specifically, an amino acid sequence of a core component of senile plaque—an Aβ42 protein (the 22nd amino acid in a sequence of 42 amino acids—glutamic acid is mutated into glycine) is stably transferred into HEK-293 cells, so that it is stably expressed in the HEK-293 cells to form a cell model of abnormal Aβ protein aggregation, and then tetracycline is added to induce the Aβ protein to form a red fluorescent protein and emit red fluorescent light for positioning and quantifying the expression of the Aβ42 protein; and then, the polypeptide with the function of inhibiting Aβ42 protein aggregation according to the present invention is added, and a HEK293 cell model transfected with an Aβ42-red fluorescent labeling gene is used for evaluation, thus proving that the polypeptide has a remarkable activity of inhibiting Aβ42 protein aggregation. […]

Pro-Pro-Lys-Asn-Trp (PPLAT) [PW-5]
Aβ42 protein aggregation rate (PW-5 high-dose group 0.5 mM, effect more significant than low-dose group): significantly reduced | Aβ42 protein aggregation rate (PW-5 low-dose group 0.05 mM): significantly reduced
